{"source": "patent US7635467B2", "about": "“Mammalian multipotent stem cells and compositions, methods of preparation and methods of administration thereof” (The Board of Trustees of the University of Illinois, priority 2002, dated 2009)", "key": {"human MeSCs": {"test_system": "human MeSCs", "assay": "Co-culture of BrdU-treated human MeSCs with differentiated NSCs, immunocytochemistry for bIII-tubulin and GFAP", "format": "cell-based", "settings": "MeSCs treated with 10 μM BrdU for 5 days; seven days post-coculture"}, "[1]": {"test_system": "Genomic DNA from human MeSCs", "assay": "Methylation-sensitive restriction enzyme (HpaII) digestion of genomic DNA from BrdU-treated MeSCs", "settings": "0, 1 and 10 μM BrdU for 72 hr; dose-dependent"}, "human MNSCs [2]": {"test_system": "human MNSCs", "assay": "Exposure of human MNSC cultures to recombinant reelin", "format": "cell-based", "text": "The cell cluster is composed of undifferentiated cultured cells with migrating and differentiating cells forming the leading outer processes."}, "human MNSCs [3]": {"test_system": "human MNSCs", "assay": "Differentiation of human MNSCs treated with recombinant sAPP, serum-free conditions", "format": "cell-based", "experimental": "To investigate whether 22C11-induced inhibition of human MNSC differentiation occurs through the sequestering of sAPP or by blocking the N-terminal domain of APP on the membrane of differentiating cells, human MNSCs were treated with exogenous sAPP. Recombinant human sAPP was produced in yeast, which contains 95% sAPP695T (ending at amino acid 505 of 695) and 5% sAPP695.\nThe cell population of sAPP-treated human MNSCs at 5 DIV under the serum-free differentiation condition was also characterized by double immunofluorescence labeling of GFAP and bIII tubulin (FIG. 29). Treatment with sAPP dose dependently (25, 50, 100 ng/ml) increased the population of GFAP positive cells from an average of 45% in controls (no sAPP) to an average of 83% using the highest concentration of sAPP (100 ng/ml at 5 DIV)."}}, "note": "Entries after “also recorded” stand apart in the source; their conditions may differ."}
{"molecule": "O=c1[nH]c(=O)n([C@H]2C[C@H](O)[C@@H](CO)O2)cc1Br", "note": "[BrdU, 5-bromo-2-deoxyuridine]", "values": [{"measurement": "GFAP-immunopositive large flattened multipolar cells, of total cells", "setting": "human MeSCs", "value": "approximately 60%"}, {"measurement": "bIII-tubulin immunopositive small bipolar and unipolar cells, of total cells", "setting": "human MeSCs", "value": "approximately 40%"}, {"measurement": "HpaII digestion of genomic DNA (size of DNA fragments)", "setting": "[1]", "value": "prevented enzyme digestion; also recorded: prevents methylation-sensitive restriction enzyme digestion of DNA"}]}
{"molecule": "recombinant reelin: large extracellular matrix (ECM) protein of approximately 400 kDa", "values": [{"measurement": "mobility of cells in the cluster", "setting": "human MNSCs [2]; addition of recombinant reelin to NSCs in culture", "value": "increased mobility of cells"}, {"measurement": "behaviour of processes of differentiating human MNSC cultures", "setting": "human MNSCs [2]; exposure to recombinant reelin", "value": "immediately retract their processes back to the cell cluster"}]}
{"molecule": "sAPP: Recombinant human sAPP produced in yeast, contains 95% sAPP695T (ending at amino acid 505 of 695) and 5% sAPP695", "values": [{"measurement": "population of GFAP positive cells", "setting": "human MNSCs [3]; 100 ng/ml at 5 DIV, serum-free, 45% in controls", "value": 83, "unit": "%"}, {"measurement": "bIII-tubulin-positive neurons in total population of differentiated human MNSCs", "setting": "human MNSCs [3]; highest concentration of sAPP, 5 DIV, serum-free, 51% in controls", "value": 13, "unit": "%"}, {"measurement": "differentiation pattern (GFAP / bIII-tubulin staining) compared to control", "setting": "human MNSCs [3]; low doses of sAPP (e.g., 25 ng/ml), 5 DIV, serum-free", "value": "increased glial (red) and neuronal (green) differentiation"}, {"measurement": "TUNEL signal in human MNSCs", "setting": "human MNSCs [3]; sAPP treatment", "value": "did not increase the TUNEL signal"}, {"measurement": "differentiation of human MNSCs", "setting": "human MNSCs [3]; serum-free differentiation conditions, 25, 50 and 100 ng/ml, 5 days, dose-dependent", "value": "differentiated human MNSCs; also recorded: increased the differentiation"}]}
